Assay type in all cases: functional
For experiment [1], the system named is Mycobacterium tuberculosis. As to the kind of experiment: Antitubercular activity against extensive drug-resistant Mycobacterium tuberculosis clinical isolate 7 assessed as growth inhibition by microdilution method. (In general: In broth dilution the organism is exposed to a series of concentrations in liquid medium.)
In experiment [2] the test system is Mycobacterium tuberculosis. As to the kind of experiment: Ratio of MIC for compound to linezolid for extensive drug-resistant Mycobacterium tuberculosis.
Experiment [3] relates to Mycobacterium tuberculosis. Nature of the experiment: Antitubercular activity against extensive drug-resistant Mycobacterium tuberculosis clinical isolate 5 assessed as growth inhibition by microdilution method.
The subject of experiment [4] is Mycobacterium tuberculosis. As to the kind of experiment: Antitubercular activity against extensive drug-resistant Mycobacterium tuberculosis clinical isolate 6 assessed as growth inhibition by microdilution method.
The subject of experiment [5] is Mycobacterium tuberculosis. As to the kind of experiment: Antitubercular activity against multidrug-resistant Mycobacterium tuberculosis clinical isolate 2 assessed as growth inhibition by microdilution method.
For experiment [6], the system named is Mycobacterium tuberculosis. As to the kind of experiment: Antitubercular activity against multidrug-resistant Mycobacterium tuberculosis clinical isolate 3 assessed as growth inhibition by microdilution method.
For experiment [7], the system named is Mycobacterium tuberculosis. Nature of the experiment: Antitubercular activity against isoniazid-resistant Mycobacterium tuberculosis H37RV clinical isolate 1 assessed as growth inhibition by microdilution method. The conditions noted are these: H37Rv isolate 1.
For experiment [8], the system named is Mycobacterium tuberculosis. As to the kind of experiment: Ratio of MIC for compound to linezolid for multidrug-resistant Mycobacterium tuberculosis.
In experiment [9] the test system is Mycobacterium tuberculosis. As to the kind of experiment: Antitubercular activity against extensive drug-resistant Mycobacterium tuberculosis clinical isolate 4 assessed as growth inhibition by microdilution method.

This is an account of results in ChEMBL document CHEMBL3124787, “Discovery of novel bis-oxazolidinone compounds as potential potent and selective antitubercular agents” (Bioorg Med Chem Lett, 2014).

Where only a bound is given, the exact number is not on record here.

The term MIC denotes the lowest concentration found to suppress growth. As to `CC(=O)NC[C@H]1CN(c2ccc(OC[C@@H]3CN(c4ccccc4)C(=O)O3)c(F)c2)C(=O)O1`, the MIC was determined as 8 µg/mL in experiment [1]; 4 µg/mL in [3]; 2 µg/mL in experiment [4]; 4 µg/mL in [5]; 4 µg/mL in experiment [6]; 8 µg/mL in [7]. The MIC in experiment [9] amounted to 4 µg/mL. Besides, the Ratio in [2] and in experiment [8] was more than 20 throughout.
In the case of `COc1ccc(N2C[C@@H](COc3ccc(N4C[C@H](CNC(C)=O)OC4=O)cc3F)OC2=O)cc1`, the MIC in [1] was 8 µg/mL; in experiment [3], 4 µg/mL; in experiment [4], 2 µg/mL; in experiment [5], 4 µg/mL; in experiment [6] it was 4 µg/mL; in experiment [7], 4 µg/mL. Besides, the MIC in experiment [9] is 4 µg/mL. Moreover, the Ratio in experiment [2] and in [8] was more than 20 in each case.
As for `NNC(=O)c1ccncc1` [ISONIAZID], the MIC in experiment [1] worked out at 8 µg/mL; in experiment [3], 4 µg/mL; in [4], 4 µg/mL; in experiment [5] it was 8 µg/mL; in experiment [6] it was 2 µg/mL; in [7], 2 µg/mL. In experiment [9], the MIC is 2 µg/mL.
Turning to `CC(=O)NC[C@H]1CN(c2ccc(N3CCOCC3)c(F)c2)C(=O)O1` [LINEZOLID], the MIC in [1] turned out to be 0.25 µg/mL; in [3] it was 0.25 µg/mL; in experiment [4], 0.25 µg/mL; in [6], 0.25 µg/mL; in [7], 0.25 µg/mL; in [9] it was 1 µg/mL.
